Assay results reported in patent EP0674651B1, “SUBSTITUTED 6-AZAANDROSTENONES” (priority 1992, dated 1994).

Assays:
[1] = target: T1, human type 1 5α-reductase (Homo sapiens, UniProt P18405); assay: 5α-reductase in vitro inhibitory activity, human type 1
T1 sequence (P18405 1-259): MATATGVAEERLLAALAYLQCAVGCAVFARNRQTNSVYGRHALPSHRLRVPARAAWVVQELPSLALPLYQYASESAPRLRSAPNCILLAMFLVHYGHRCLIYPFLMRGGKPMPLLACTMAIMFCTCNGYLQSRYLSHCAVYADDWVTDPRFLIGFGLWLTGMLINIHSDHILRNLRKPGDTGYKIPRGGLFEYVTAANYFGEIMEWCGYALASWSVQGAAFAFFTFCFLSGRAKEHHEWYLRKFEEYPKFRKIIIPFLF

[2] = target: T2, human type 2 5α-reductase (Homo sapiens, UniProt P31213); assay: 5α-reductase in vitro inhibitory activity, human type 2
T2 sequence (P31213 1-254): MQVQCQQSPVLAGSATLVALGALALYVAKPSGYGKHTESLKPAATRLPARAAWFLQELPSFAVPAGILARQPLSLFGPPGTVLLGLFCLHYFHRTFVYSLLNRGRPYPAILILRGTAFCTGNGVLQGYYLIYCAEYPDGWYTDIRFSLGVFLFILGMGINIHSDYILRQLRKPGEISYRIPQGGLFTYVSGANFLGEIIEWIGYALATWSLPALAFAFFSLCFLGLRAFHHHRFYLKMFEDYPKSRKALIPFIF
Protocol: Microsomes were prepared by homogenization of the tissue or cells, followed by differential centrifugation of the homogenate. […] Corresponding incubations were carried out with no test compound as a control study.
The percentage of conversion of testosterone to DHT in the presence of test compounds compared to the corresponding conversion in the control study was estimated using high pressure liquid chromatography (HPLC) with radiochemical detection.

Row | SMILES | IC50 [1] | IC50 [2]
1 | C[C@]12CC[C@H]3[C@@H](CNC4=CC(=O)CC[C@@]43C)[C@@H]1CC[C@@H]2C(=O)Nc1cc(C(F)(F)F)ccc1-c1ccccc1 [Compound 112, 17β-N-(2-Phenyl-5-trifluoromethyl)phenyl-carbamoyl-6-azaandrost-4-en-3-one] | 10 to 100 nM | < 10 nM
2 | COc1cc(Cl)cc(NC(=O)[C@H]2CC[C@H]3[C@@H]4CNC5=CC(=O)CC[C@]5(C)[C@H]4CC[C@]23C)c1 [Compound 113, 17β-N-(3-Methoxy-5-chloro)phenyl-carbamoyl-6-azaandrost-4-en-3-one] | 10 to 100 nM | < 10 nM
3 | CCOC(=O)c1ccccc1NC(=O)[C@H]1CC[C@H]2[C@@H]3CNC4=CC(=O)CC[C@]4(C)[C@H]3CC[C@]12C [Compound 114, 17β-N-(2-Carboethoxy)phenyl-carbamoyl-6-azaandrost-4-en-3-one] | 10 to 100 nM | < 10 nM
4 | CCOc1ccc(OCC)c(NC(=O)[C@H]2CC[C@H]3[C@@H]4CNC5=CC(=O)CC[C@]5(C)[C@H]4CC[C@]23C)c1 [Compound 119, 17β-N-(2,5-Diethoxy)phenyl-carbamoyl-6-azaandrost-4-en-3-one] | 10 to 100 nM | < 10 nM
5 | C[C@]12CC[C@H]3[C@@H](CNC4=CC(=O)CC[C@@]43C)[C@@H]1CC[C@@H]2C(=O)Nc1ccccc1C(=O)c1ccccc1 [Compound 123, 17β-N-(2-Benzoyl)phenyl-carbamoyl-6-azaandrost-4-en-3-one] | 10 to 100 nM | < 10 nM
6 | C[C@]12CC[C@H]3[C@@H](CNC4=CC(=O)CC[C@@]43C)[C@@H]1CC[C@@H]2C(=O)NC1(c2ccc3c(c2)OCO3)CCCCC1 [Compound 124, 17β-N-1-(3,4-Methylenedioxyphenyl)cyclohexyl-carbamoyl-6-azaandrost-4-en-3-one] | 10 to 100 nM | < 10 nM
7 | COc1ccc(C(C)(C)C)cc1NC(=O)[C@H]1CC[C@H]2[C@@H]3CNC4=CC(=O)CC[C@]4(C)[C@H]3CC[C@]12C [Compound 128, 17β-N-(2-Methoxy-5-t-butyl)phenyl-carbamoyl-6-azaandrost-4-en-3-one] | < 10 nM | < 10 nM
8 | C[C@]12CC[C@H]3[C@@H](CNC4=CC(=O)CC[C@@]43C)[C@@H]1CC[C@@H]2C(=O)Nc1cc(C(F)(F)F)ccc1F [Compound 129] | 10 to 100 nM | < 10 nM
9 | CCC1(CC)CC1(NC(=O)[C@H]1CC[C@H]2[C@@H]3CNC4=CC(=O)CC[C@]4(C)[C@H]3CC[C@]12C)c1ccc(-c2ccccc2)cc1 (stereo partly drawn) [Compound 130, 17β-N-(1-(4-Biphenyl)-2,2-diethyl)cyclopropyl-carbamoyl-6-azaandrost-4-en-3-one] | < 10 nM | < 10 nM
10 | CCC1(CC)CC1(NC(=O)[C@H]1CC[C@H]2[C@@H]3CNC4=CC(=O)CC[C@]4(C)[C@H]3CC[C@]12C)c1ccc(C(F)(F)F)cc1 (stereo partly drawn) [Compound 131, 17β-N-(1-(4-Trifluoromethylphenyl)-2,2-diethyl)cyclopropyl-carbamoyl-6-azaandrost-4-en-3-one] | < 10 nM | < 10 nM
11 | COC(=O)c1sc(C(C)(C)C)cc1NC(=O)[C@H]1CC[C@H]2[C@@H]3CNC4=CC(=O)CC[C@]4(C)[C@H]3CC[C@]12C [Compound 132, 17β-N-3-(2-Carbomethoxy-5-t-butyl)thiophenyl-carbamoyl-6-azaandrost-4-en-3-one] | 10 to 100 nM | < 10 nM
12 | C[C@]12CC[C@H]3[C@@H](CNC4=CC(=O)CC[C@@]43C)[C@@H]1CC[C@@H]2C(=O)Nc1ccccc1S(=O)(=O)c1ccccc1 [Compound 133, 17β-N-(2-Phenylsulfonyl)phenyl-carbamoyl-6-azaandrost-4-en-3-one] | > 100 nM | < 10 nM
13 | CCOC(=O)c1ccc(NC(=O)[C@H]2CC[C@H]3[C@@H]4CNC5=CC(=O)CC[C@]5(C)[C@H]4CC[C@]23C)cc1 [Compound 134, 17β-N-(4-Carboethoxy)phenyl-carbamoyl-6-azaandrost-4-en-3-one] | 10 to 100 nM | < 10 nM
14 | CC(C)(C)c1ccc(-c2ccc(C(F)(F)F)cc2NC(=O)[C@H]2CC[C@H]3[C@@H]4CNC5=CC(=O)CC[C@]5(C)[C@H]4CC[C@]23C)cc1 [Compound 135] | > 100 nM | < 10 nM
15 | CC(C)(C)c1ccc(C2(NC(=O)[C@H]3CC[C@H]4[C@@H]5CNC6=CC(=O)CC[C@]6(C)[C@H]5CC[C@]34C)CCCCCC2)cc1 [Compound 136, 17β-N-1-(4-t-Butylphenyl)cycloheptyl-carbamoyl-6-azaandrost-4-en-3-one] | < 10 nM | < 10 nM
16 | C[C@]12CC[C@H]3[C@@H](CNC4=CC(=O)CC[C@@]43C)[C@@H]1CC[C@@H]2C(=O)Nc1cccc(C(=O)O)c1 [Compound 137, 17β-N-(3-Carboxy)phenyl-carbamoyl-6-azaandrost-4-en-3-one] | > 100 nM | < 10 nM
17 | C[C@]12CC[C@H]3[C@@H](CNC4=CC(=O)CC[C@@]43C)[C@@H]1CC[C@@H]2C(=O)Nc1cccc2c1C(=O)c1ccccc1-2 [Compound 138, 17β-N-1-(9-Fluorenonyl)-carbamoyl-6-azaandrost-4-en-3-one] | 10 to 100 nM | < 10 nM
18 | CC(C)(C)c1ccc(C2(NC(=O)[C@H]3CC[C@H]4[C@@H]5CNC6=C(Cl)C(=O)CC[C@]6(C)[C@H]5CC[C@]34C)CCCCC2)cc1 [Compound 139, 17β-N-1-(4-t-Butylphenyl)cyclohexyl-carbamoyl-6-azaandrost-4-chloro-4-en-3-one] | < 10 nM | < 10 nM
19 | CCc1cc(-c2ccc(Cl)cc2)cc(CC)c1NC(=O)[C@H]1CC[C@H]2[C@@H]3CNC4=CC(=O)CC[C@]4(C)[C@H]3CC[C@]12C [Compound 140, 17β-N-(2,6-Diethyl-4-(4-chlorophenyl))phenyl-carbamoyl-6-azaandrost-4-en-3-one] | < 10 nM | < 10 nM
20 | C[C@]12CC[C@H]3[C@@H](CNC4=CC(=O)CC[C@@]43C)[C@@H]1CC[C@@H]2C(=O)NNc1ccccc1 [Compound 141, 17β-N-(2-Phenyl)-hydrazidyl-carbamoyl-6-azaandrost-4-en-3-one] | > 100 nM | < 10 nM

The remaining lines, values ahead:

Row | IC50 [1] | IC50 [2] | SMILES
21 | < 10 nM | < 10 nM | COc1ccc(C2(NC(=O)[C@H]3CC[C@H]4[C@@H]5CNC6=CC(=O)CC[C@]6(C)[C@H]5CC[C@]34C)CCCC2)cc1 [Compound 115, 17β-N-1-(4-Methoxyphenyl)cyclopentyl-carbamoyl-6-azaandrost-4-en-3-one]
22 | < 10 nM | < 10 nM | CC1=C2NC[C@H]3[C@@H]4CC[C@H](C(=O)Nc5cc(C(F)(F)F)ccc5C(F)(F)F)[C@@]4(C)CC[C@@H]3[C@@]2(C)CCC1=O [Compound 116, 17β-N-(2,5-bis(Trifluoromethyl))phenyl-carbamoyl-6-azaandrost-4-methyl-4-en-3-one]
23 | < 10 nM | < 10 nM | CC1=C2NC[C@H]3[C@@H]4CC[C@H](C(=O)Nc5cc(C(F)(F)F)ccc5C(C)(C)C)[C@@]4(C)CC[C@@H]3[C@@]2(C)CCC1=O [Compound 117, 17β-N-(2-t-Butyl-5-trifluoromethyl)phenyl-carbamoyl-6-azaandrost-4-methyl-4-en-3-one]
24 | < 10 nM | < 10 nM | CC1=C2NC[C@H]3[C@@H]4CC[C@H](C(=O)Nc5cc(C(C)(C)C)ccc5C(C)(C)C)[C@@]4(C)CC[C@@H]3[C@@]2(C)CCC1=O [Compound 118, 17β-N-(2,5-Di-t-butyl)phenyl-carbamoyl-6-azaandrost-4-methyl-4-en-3-one]
25 | < 10 nM | < 10 nM | CC(C)(C)c1ccc(-c2ccc(Cl)cc2)cc1NC(=O)[C@H]1CC[C@H]2[C@@H]3CNC4=CC(=O)CC[C@]4(C)[C@H]3CC[C@]12C [Compound 120, 17β-N-(2-t-Butyl-5-(4-chlorophenyl))phenyl-carbamoyl-6-azaandrost-4-en-3-one]
26 | < 10 nM | < 10 nM | CC(C)(C)c1ccc(C2(NC(=O)[C@H]3CC[C@H]4[C@@H]5CNC6=CC(=O)CC[C@]6(C)[C@H]5CC[C@]34C)CCCC2)cc1 [Compound 121, 17β-N-1-(4-t-Butylphenyl)cyclopentyl-carbamoyl-6-azaandrost-4-en-3-one]
27 | < 10 nM | < 10 nM | CC(C)(C)c1ccc(C2(NC(=O)[C@H]3CC[C@H]4[C@@H]5CNC6=CC(=O)CC[C@]6(C)[C@H]5CC[C@]34C)CCCCC2)cc1 [Compound 122, 17β-N-1-(4-t-Butylphenyl)cyclohexyl-carbamoyl-6-azaandrost-4-en-3-one]
28 | < 10 nM | < 10 nM | CC1=C2NC[C@H]3[C@@H]4CC[C@H](C(=O)NC5(c6ccc(Cl)cc6)CCCC5)[C@@]4(C)CC[C@@H]3[C@@]2(C)CCC1=O [Compound 125, 17β-N-1-(4-Chlorophenyl)cyclopentyl-carbamovl-6-azaandrost-4-methyl-4-en-3-one]
29 | < 10 nM | < 10 nM | C[C@]12CC[C@H]3[C@@H](CNC4=C(Cl)C(=O)CC[C@@]43C)[C@@H]1CC[C@@H]2C(=O)Nc1cc(C(F)(F)F)ccc1C(F)(F)F [Compound 126, 17β-N-(2,5-bis(Trifluoromethyl))phenyl-carbamoyl-6-azaandrost-4-chloro-4-en-3-one]
30 | < 10 nM | < 10 nM | CC(C)(C)c1ccc(C(F)(F)F)cc1NC(=O)[C@H]1CC[C@H]2[C@@H]3CNC4=C(Cl)C(=O)CC[C@]4(C)[C@H]3CC[C@]12C [Compound 127, 17β-N-(2-t-Butyl-5-trifluoromethyl)phenyl-carbamoyl-6-azaandrost-4-chloro-4-en-3-one]
